Entries after “also recorded” stand apart in the source; their conditions may differ.
Experiments:
αSyn [1] = target: T1, αSyn (Homo sapiens, UniProt P37840, Q99C); test: αSyn FRET (Cy3/Cy5) oligomerization assay; type: biochemical
T1 construct: made in house; host or cells: E. coli BL21(DE3), pET28b
Method: For the FRET oligomerization assay, 10 μM each of αSyn-Q-C(position number)Cy3 (donor) and αSyn-Q(position number)C-Cy5 (acceptor) in PBS (pH 7.4) were dispensed into black/clear bottom 384-well plates (Greiner) using a Mantis liquid handler (Formulatrix). The plate was sealed with AbsorbMax film (Sigma-Aldrich) and incubated at 37° C. The FRET between donor and acceptor was measured on a SpectraMax M5 Microplate Reader (Molecular Devices). An excitation wavelength of 525 nm for αSyn-Cy3 (donor), and emission wavelengths of 570 nm and 670 nm for αSyn-Cy3 (donor) and αSyn-Cy5 (acceptor) respectively were used. The plate reader PTM sensitivity is set to medium and assays executed without mixing. The signals are read at 10 minute intervals for 99 hours at 37° C. Efficiency of FRET was calculated as follows: EFRET=IAcceptor/IDonor, in which IAcceptor is acceptor emission intensity, IDonor is donor emission intensity.
• 1. Single point mutation (x to Cys) is introduced to αSyn. • 2. Cy3 and Cy5 are used as FRET probes Brief Procedure: Label αSyn Mutant with Cy3/Cy5 Dyes: • Incubate purified αSyn Q99C with 1 mM TCEP at 4° C. for 3 hours to reduce Cys; • Dissolve Cy3-maleimide or Cy5-maleimide (GE Healthcare) in DMSO; • Add 10× molar excess of dye to αSyn Q99C; • Incubate at 4° C. overnight; • Remove excess dye by HiTrap Desalting column (GE Healthcare); FRET Assay • Mix the following: • αSyn-Q99C-Cy3 5 uM • αSyn-Q99C-Cy5 5 uM
Measure the fluorescence from Cy3 and Cy5 at 37° C. for 99 hours on a plate reader (SpectraMax M5, Molecular Devices).

αSyn [2] = target: αSyn (Homo sapiens, UniProt P37840); test: αSyn split Gaussia luciferase (GLuc) biochemical oligomerization assay; design: His tag; made in house; host or cells: E. coli BL21(DE3), pET28b; details: 24 hours; for impact on αSyn oligomerization (GLuc complementation): 100 μM compound, 12.5 μM of each tagged synuclein; for impact on αSyn oligomerization relative to other active compounds (GLuc): 100 μM
Method: A mixture of purified αSyn fused at its C-terminus with either the N-Terminal or the C-terminal half of Gaussia luciferase was incubated and the formation of oligomers monitored by reconstituted luciferase activity (FIG. 9, GLuc). For comparison, fibrillization of αSyn was measured in parallel samples by measuring the fluorescence of the dye Thioflavin T (ThT) as is widely used in the field (FIG. 9, ThT). […] The αSyn-Split Gluc tags have been used to detect αSyn oligomerization in cell models via transfection and expression of DNA encoding αSyn fused to split Gluc tags, but it has not previously been used in a biochemical assay using purified proteins as shown here.
Five to […] each of αSyn-GLuc1 and μM αSyn-GLuc2, (N-terminal or C-terminal fragment of GLuc fused to the C-terminus of αSyn see Example 6) in a buffer consisting of 1 mM MgCl2, 1 mM ADP, 50 mM Na3PO4, 0.02% NaN3 and 1 mM DTT at pH 7.4, were incubated at 37° C. in a thermal cycler (BioRad DNA Engine PTC-200). In experiments in which fibrillization was also measured, samples were incubated in an air incubator with shaking at 1000 rpm. At various time points (typically 0, 6, 12, and 24 hours), Gaussia luciferase activity was quantified using a BioLux Gaussia Luciferase Assay Kit (NEB) according to the manufacturer's instructions and read on a SpectraMax M5 Microplate Reader (Molecular Devices) with 5 minute delay after the addition of substrate and 3 sec integration time reading each well.
• Mix αSyn-GLuc1 and αSyn-GLuc2 at a final concentration of 10 μM each; • Incubate at 37° C. with shaking at 1000 rpm for 120 hours; • Take aliquot at 0/3/6/12/24/48/72/96/120 hour for analysis by Gaussia luciferase activity assay and ThT assay Methods Gaussia Luciferase Assay (According to BioLux Kit Manual): • 1. Thaw reaction buffer and stabilizer; • 2. Make working solution, for each reaction: • Reaction Buffer 50 μL • BioLux Stabilizer 8 μL • Substrate 0.5 μL • 3. Mix well and wait 5 minutes to use the working solution; • 4. Take out 10 μL GLuc sample and put on white 96-well plates; • 5. Add 50 μL working solution, mix well and wait 3.5 minutes; • 6. Read on the plate reader at 480 nm ThT Assay: • 1. Dilute 1 mM Thioflavin T (M.W. 319 Da) stock in PBS to 25 μM final concentration (1:40 dilution) • 2. Pipet 95 μL of the 25 μM Thioflavin T per well of 384 well plate. • 3. Pipet αSyn fibril up and down to mix, add 5 μL to wells with Thioflavin T • 4. For controls, include 5 μL PBS alone. • 5. Incubate at room temperature for 15 min to 1 hour. • 6. Read plate (excitation 440 nm, emission 482 nm). Method Used to Screen 66 HT-CM-SPR Compounds Using αSyn-GLuc:
Reaction mix is added into 96-well PCR plate containing:
Reaction: • αSyn-GLuc1 12.5 μM • αSyn-GLuc2 12.5 μM • Compound 0/12.5/25/50/75/100 μM in DMSO 0.2% • Negative: DMSO 0.2%: • 37 degree (PCR), no shaking

| SMILES | activity in FRET αSyn oligomerization assay (αSyn [1]) | impact on αSyn oligomerization (GLuc complementation) (αSyn [2]) | impact on αSyn oligomerization relative to other active compounds (GLuc) (αSyn [2]) | impact relative to 576755 in FRET αSyn oligomerization assay (αSyn [1]) |
| --- | --- | --- | --- | --- |
| CNC(=O)c1cc(O)ccc1NC [Compound 581858, 2-methylamino-5-hydroxy-N-methylbenzamide] | also active | demonstrated inhibition of αSyn oligomerization | more impact on αSyn oligomerization than 576755 and 581823 |  |
| CNC(=O)c1cc(O)ccc1N [Compound 576755, 2-amino-5-hydroxy-N-methylbenzamide] | block αSyn oligomerization | impair αSyn oligomerization; also recorded: demonstrated inhibition of αSyn oligomerization |  |  |
| CNC(=O)CN(C(=O)Cc1noc2ccccc12)C(C)c1ccc(Cl)cc1 (stereo not shown) [Compound 582032, 2-(benzo[d]isoxazol-3-yl)-N-(1-(4-chlorophenyl)ethyl)-N-(2-(methylamino)-2-oxoethyl)acetamide] | block αSyn oligomerization | impair αSyn oligomerization |  |  |
| CNC(=O)c1cc(O)ccc1N(C)C [Compound 581823, 2-dimethylamino-5-hydroxy-N-methylbenzamide] | also active | demonstrated inhibition of αSyn oligomerization | less impact than 576755 | less impact than 576755 |
| Cc1c(-c2csc(NC(C(N)=O)C3CCNCC3)n2)sc2ccccc12 (stereo not shown) [Compound 573437, 2-((4-(3-methylbenzo[b]thiophen-2-yl)thiazol-2-yl)amino)-2-(piperidin-4-yl)acetamide] | block αSyn oligomerization | impair αSyn oligomerization |  |  |
| CNC(=O)c1cc(O)ccc1O [Compound 583854, 2,5-dihydroxy-N-methylbenzamide] | also active | demonstrated inhibition of αSyn oligomerization | more impact on αSyn oligomerization than 576755 and 581823 |  |

Reference: patent US12553889B2, “Small molecules targeting the intrinsically disordered structural ensemble of α-synuclein protect against diverse α-synuclein mediated dysfunctions” (The Regents of the University of California, priority 2019, dated 2026)
